Assay results: US6476187B1, “Methods and reagents for discovering and using mammalian melanocortin receptor agonists and antagonists to modulate feeding behavior in animals” (Oregon Health & Sciences University, priority 1992, dated 2002)
Residues, ends and D or L forms follow the SMILES beside them.

Legend:
[1] = biological target: T1, murine αMSH receptor (MC-1) (Mus musculus, UniProt Q01727); assay: intracellular cAMP accumulation in 293 cells transfected with mouse αMSH receptor; type: cell-based; settings: 293 cells expressing murine αMSH receptor
T1 construct: excising the entire coding region of the αMSH^R (MC-1) cDNA insert comprising a 2.1 kb fragment; expressed in transfected cells; host or cells: human 293 cells, pcDNAI/neo, G418-selected
T1 sequence (Q01727 whole entry, the tested form may be a part): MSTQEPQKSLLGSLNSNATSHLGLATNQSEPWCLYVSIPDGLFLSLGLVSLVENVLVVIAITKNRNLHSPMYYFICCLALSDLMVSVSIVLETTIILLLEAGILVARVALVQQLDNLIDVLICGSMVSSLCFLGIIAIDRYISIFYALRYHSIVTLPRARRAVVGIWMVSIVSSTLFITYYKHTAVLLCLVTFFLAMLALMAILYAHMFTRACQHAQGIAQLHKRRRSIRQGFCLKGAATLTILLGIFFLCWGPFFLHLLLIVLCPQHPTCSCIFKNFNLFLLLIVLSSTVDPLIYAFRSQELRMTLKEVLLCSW
Description: After transfection, cells were cultured in DMEM media supplemented with 10% calf serum in a 3% CO2 atmosphere at 37° C. Selection was performed with neomycin (G418; GIBCO) at a concentration of 1000 μg/mL; selection was started 72 hr after transfection and continued for 3 weeks.
Following hormone treatment, the cells were washed twice with phosphate buffered saline and intracellular cAMP extracted by lysing the cells with 1 mL of 60% ethanol.

rat MC3-R = biological target: T2, rat MC3-R (Rattus norvegicus, UniProt P32244); assay: intracellular cAMP production in 293 cells expressing MC3-R; type: cell-based; settings: 1 h at 37° C.
T2 construct: The entire coding region of the MC-3 receptor cDNA insert; expressed in transfected cells; host or cells: human 293 cells, pcDNA/neo I, G418-selected
T2 sequence (P32244 whole entry): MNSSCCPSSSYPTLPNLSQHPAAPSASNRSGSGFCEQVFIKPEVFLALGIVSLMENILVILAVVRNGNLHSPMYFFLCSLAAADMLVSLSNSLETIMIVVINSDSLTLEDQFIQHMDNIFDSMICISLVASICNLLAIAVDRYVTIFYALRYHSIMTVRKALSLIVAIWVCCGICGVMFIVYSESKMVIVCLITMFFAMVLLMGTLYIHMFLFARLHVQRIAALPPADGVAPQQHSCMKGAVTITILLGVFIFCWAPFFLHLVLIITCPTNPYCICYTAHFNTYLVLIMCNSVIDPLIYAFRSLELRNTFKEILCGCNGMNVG
Description: cAMP production assays as described above were also used to analyze expression of MC3-R in cells transfected with the expression vectors described herein as follows. […] Following hormone treatment, the cells were washed twice with phosphate buffered saline and intracellular cAMP extracted by lysing the cells with 1 mL of 60% ethanol.

rat MC-3 receptor = biological target: T3, rat MC-3 receptor (Rattus norvegicus, UniProt P32244); assay: competition of [Nle4,D-Phe7]α-MSH binding to rat MC-3 receptor; settings: peptide about 60% pure; IC50 could not be determined
T3 construct: The entire coding region of the MC-3 receptor cDNA insert; expressed in transfected cells; host or cells: human 293 cells, pcDNA/neo I, G418-selected
T3 sequence (P32244 whole entry): as above
Source text: […]. In these experiments, murine agouti peptide was produced using a baculovirus system as described by Lu et al., (1994, Nature 371: 799-802), with the modification that the agouti peptide was purified from baculovirus supernatants by 0.6M NaCl step elution from an EconoS cation exchange column (BioRad). Agouti peptide used in these assays was approximately 60% pure.

human MC-4-R = human MC-4-R (Homo sapiens, UniProt P32245); settings: Lu et al., 1994; cited from earlier work
human MC-4-R, sequence (P32245 whole entry): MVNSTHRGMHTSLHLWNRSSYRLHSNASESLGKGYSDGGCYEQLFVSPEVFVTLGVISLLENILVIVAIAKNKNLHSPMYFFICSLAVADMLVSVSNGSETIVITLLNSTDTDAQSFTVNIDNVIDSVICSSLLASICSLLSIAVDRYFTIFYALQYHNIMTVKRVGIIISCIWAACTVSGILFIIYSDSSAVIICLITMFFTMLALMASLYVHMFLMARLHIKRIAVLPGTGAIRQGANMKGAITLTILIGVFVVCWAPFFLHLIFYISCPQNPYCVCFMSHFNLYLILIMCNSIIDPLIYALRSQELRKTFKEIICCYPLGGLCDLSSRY

Q: For `CSCC[C@H](NC(=O)[C@H](CCCNC(=N)N)NC(=O)[C@H](Cc1ccc(O)cc1)NC(=O)[C@@H]1CCCN1C(=O)CNC(=O)[C@H](CCC(=O)O)NC(=O)[C@H](CC(=O)O)NC(=O)[C@H](CCCCN)NC(=O)[C@H](CCCCN)NC(=O)[C@H](CCC(=O)O)NC(=O)[C@H](C)N)C(=O)N[C@@H](CCC(=O)O)C(=O)N[C@@H](Cc1c[nH]cn1)C(=O)N[C@@H](Cc1ccccc1)C(=O)N[C@@H](CCCNC(=N)N)C(=O)N[C@@H](Cc1c[nH]c2ccccc12)C(=O)NCC(=O)N[C@@H](CO)C(=O)N1CCC[C@H]1C(=O)N1CCC[C@H]1C(=O)N[C@@H](CCCCN)C(=O)N[C@@H](CC(=O)O)C(=O)O` [βMSH], which “EC50 (intracellular cAMP)” value ([1]; 45 min at 37° C.) is on record?
A: Its value is “comparable to αMSH”.

Q: With `CSCC[C@H](NC(=O)[C@@H](NC(=O)[C@@H](N)Cc1ccc(O)cc1)C(C)C)C(=O)NCC(=O)N[C@@H](Cc1c[nH]cn1)C(=O)N[C@@H](Cc1ccccc1)C(=O)N[C@@H](CCCNC(=N)N)C(=O)N[C@@H](Cc1c[nH]c2ccccc12)C(=O)N[C@@H](CC(=O)O)C(=O)N[C@@H](CCCNC(=N)N)C(=O)N[C@@H](Cc1ccccc1)C(=O)NCC(=O)N[C@@H](CCCNC(=N)N)C(=O)N[C@@H](CCCNC(=N)N)C(=O)N[C@@H](CC(N)=O)C(=O)NCC(=O)N[C@@H](CO)C(=O)N[C@@H](CO)C(=O)N[C@@H](CO)C(=O)N[C@@H](CO)C(=O)NCC(=O)N[C@H](C(=O)NCC(=O)NCC(=O)N[C@@H](C)C(=O)N[C@@H](C)C(=O)N[C@@H](CCC(N)=O)C(=O)O)C(C)C` [γ3-MSH] (H-YVMGHFRWDRFGRRNGSSSSGVGGAAQ-OH; N-terminus and C-terminus assumed) as the molecule, how does the EC50 (rat MC3-R) read?
A: The EC50 was 6 nM.

Q: For `CSCC[C@H](NC(=O)[C@@H](NC(=O)[C@@H](N)Cc1ccc(O)cc1)C(C)C)C(=O)NCC(=O)N[C@@H](Cc1c[nH]cn1)C(=O)N[C@@H](Cc1ccccc1)C(=O)N[C@@H](CCCNC(=N)N)C(=O)N[C@@H](Cc1c[nH]c2ccccc12)C(=O)N[C@@H](CC(=O)O)C(=O)N[C@@H](CCCNC(=N)N)C(=O)N[C@@H](Cc1ccccc1)C(N)=O` [γ-MSH, γ-melanocyte stimulating hormone], which “activity in elevating intracellular cAMP” value [1] is on record?
A: Its value is “little or no activity”.

B1: agouti peptide: murine agouti peptide produced using a baculovirus system, approximately 60% pure (protein)
chain: HLALEETLGDDRSLRSNSSMNSLDFSSVSIVALNKKSKKISRKEAEKRKRSSKKKASMKKVARPPPPSPCVATRDSCKPPAPACCDPCASCQCRFFGSACTCRVLNPNC
Q: Which “competition of [Nle4,D-Phe7]α-MSH binding” value (rat MC-3 receptor) does the source give for B1 here?
A: The value was “Specific competition”.

Q: What about the “competition of αMSH activation” value (human MC-4-R) of the same molecule?
A: The value was “Specific competition”.
